The subject of experiment [1] is SEQ ID NO:61 expression in human peripheral blood mononuclear cells (PBMCs). In words: Microarray expression of SEQ ID NO:61 in PBMCs treated with acetaminophen. Type of experiment: cell-based. Particulars: human PBMCs treated with acetaminophen compared to untreated cells. An excerpt: Therefore, SEQ ID NO:61 is useful in disease staging and in diagnostic assays for immune disorders.

The subject of experiment [2] is SEQ ID NO:64 expression in human C3A liver cells. Nature of the experiment: Microarray expression of SEQ ID NO:64 in C3A liver cell cultures treated with steroids. Format: cell-based. Particulars: early confluent human C3A liver cells, 1 μM, 10 μM, and 100 μM for 1, 3, and 6 hours, compared to untreated cells.
Description: Total RNA is isolated from tissue samples using the guanidinium thiocyanate method and poly(A)^+ RNA is purified using the oligo-(dT) cellulose method. Each poly(A)^+ RNA sample is reverse transcribed using MMLV reverse-transcriptase, 0.05 pg/μl oligo-(dT) primer (21mer), 1× first strand buffer, 0.03 units/μl RNase inhibitor, 500 μM dATP, 500 μM dGTP, 500 μM dTTP, 40 μM dCTP, 40 μM dCTP-Cy3 (BDS) or dCTP-Cy5 (Amersham Biosciences). The reverse transcription reaction is performed in a 25 ml volume containing 200 ng poly(A)^+ RNA with GEMBRIGHT kits (Incyte). Specific control poly(A)^+ RNAs are synthesized by in vitro transcription from non-coding yeast genomic DNA. After incubation at 37° C. for 2 hr, each reaction sample (one with Cy3 and another with Cy5 labeling) is treated with 2.5 ml of 0.5M sodium hydroxide and incubated for 20 minutes at 85° C. to the stop the reaction and degrade the RNA. Samples are purified using two successive CHROMA SPIN 30 gel filtration spin columns (Clontech, Palo Alto Calif.) and after combining, both reaction samples are ethanol precipitated using 1 ml of glycogen (1 mg/ml), 60 ml sodium acetate, and 300 ml of 100% ethanol. The sample is then dried to completion using a SpeedVAC (Savant Instruments Inc., Holbrook N.Y.) and resuspended in 14 μl 5×SSC/0.2% SDS.
Sequences of the present invention are used to generate array elements. Each array element is amplified from bacterial cells containing vectors with cloned cDNA inserts. PCR amplification uses primers complementary to the vector sequences flanking the cDNA insert. Array elements are amplified in thirty cycles of PCR from an initial quantity of 1-2 ng to a final quantity greater than 5 μg. Amplified array elements are then purified using [sequence]-400 (Amersham Biosciences). […]
Reporter-labeled hybridization complexes are detected with a microscope equipped with an Innova 70 mixed gas 10 W laser (Coherent, Inc., Santa Clara Calif.) capable of generating spectral lines at 488 nm for excitation of Cy3 and at 632 nm for excitation of Cy5. […]
For experiment [3] the following is noted: relative to progesterone; cited from earlier work.
For experiment [4] the following is noted: intranasal; relative to hydrocortisone; cited from earlier work.

As to `CC(=O)Nc1ccc(O)cc1` [acetaminophen], the “decrease in expression of SEQ ID NO:61” value in experiment [1] is on record as “two-fold”. For “6α-methyl-17-hydroxyprogesterone [medroxyprogesterone]”, the “expression of SEQ ID NO:64” value in experiment [2] was “decreased expression”. In addition, in experiment [3], the “pharmacological activity greater than progesterone” value was “about 15 times”. As to `C[C@]12C=CC(=O)C=C1CC[C@@H]1[C@@H]2C(=O)C[C@@]2(C)[C@H]1CC[C@]2(O)C(=O)CO` [prednisone], the “expression of SEQ ID NO:64” value in experiment [2] is recorded as “decreased expression”. Consider `C[C@H]1C[C@H]2[C@@H]3CCC4=CC(=O)C=C[C@]4(C)[C@@]3(Cl)[C@@H](O)C[C@]2(C)[C@@]1(O)C(=O)CO` [beclomethasone], for which the “expression of SEQ ID NO:64” value in experiment [2] is listed as “decreased expression”. Moreover, the “anti-inflammatory and vasoconstrictive effects greater than those produced by hydrocortisone” value in experiment [4] is 5000 times.

Source of the values: US20050123912A1, “Nucleic-acid associated proteins” (priority 2002, published 2005).
